The conditions of series [1]: in vivo; cited from earlier work.
For series [2] the following is noted: cited from earlier work.
The conditions of series [3]: irrespective of application route; cited from earlier work.
For series [4], the system named is gastric mucous membrane. Description: Effect on gastric mucous membrane (irritation). It is filed as in vivo, rats. As to the method: […] After 4 hours its effect on irritation of gastric mucous membrane was measured in a way that the rate of bleeding in stomach and frequency of ulcers was determined.
In series [5] the test system is convulsions caused by phenylbenzoquinone. Description: Alleviation of pain (phenylbenzoquinone-induced convulsions). The format is in vivo, female mice. The note with it: Mus musculus, po, read-out: ED50 (50% pain protection); 95% confidence limit; peroral, 30 minutes before intraperitoneal phenylbenzoquinone.
Protocol: The effect of alleviating pain was tested with the number of convulsions caused by phenylbenzoquinone. Female mice, weight 15 to 22 g, were fasted before the test for 24 hours and after the application water and food were ad libitum. 30 minutes after peroral introduction of the suspension of active substance in 10% gum arabic solution, individual mice were intraperitoneally administered 0.25 ml of 0.02% phenylbenzoquinone solution. Only the vehicle was applied to a control group of animals. The number of phenylbenzoquinone-induced convulsions was pursued 5 to 20 minutes after the application thereof.
ED50 calculated dosis of the active substance in mg per 1 kg of the
animal, which dosis caused a 50% pain protection
In series [6] the test system is oedema caused by carrageenin. Description: Antiinflammatory action in vivo (carrageenin oedema). Also noted: species or system rats. Here is the method:
Antiinflammatory action was measured in vivo by the inhibition of oedema caused by carrageenin.
Rats, which were fasted overnight, were given 100 mg/kg of the test substance 1 hour before the injection of 0.1 ml 1% carrageenin suspension.

The subject of series [7] is mice of Han-NMRI strain. Kind of series: in vivo. Particulars: for comparative toxicity (in words): peroral, mice and rats. Here is the method:
(§1) In the test mice of Han-NMRI strain of both sexes, weight 19 to 24 g, and female rats of Han-WISTAR strain, weight 220 to 250 g, were used. The active substance was suspended in arachis oil and applied perorally. The volume of the applied suspension was 0.2 ml/20 g body weight in mice and 0.2 ml/200 g body weight in rats. Before the test the animals were fasted for 24 hours and after application, water and food were available ad libitum.

Series [8] can be described thus: in vivo. Particulars: po. Here is the method: as §1
For series [9] the following is noted: cited from earlier work. The source holds these as a separate data set.
[10] abbreviates: mouse, in vivo, 2000 mg/kg, % of deaths after 15 days, female mice, 2000 mg/kg peroral.
The mark [11] stands for this setting: mouse, in vivo, 2000 mg/kg, % of deaths after 15 days, male mice, 2000 mg/kg peroral.
[12] abbreviates: mouse, in vivo, 2000 mg/kg, % of deaths in 24 h, female mice, 2000 mg/kg peroral.
Where [13] appears, read: mouse, in vivo, 2000 mg/kg, % of deaths in 24 h, male mice, 2000 mg/kg peroral.

A value given as a limit tells only on which side of the number the result lay.

As for `CC(C)Cc1ccc(C(C)C(=O)NO)cc1` (racemic) [racemic ibuproxam, 2-(4-isobutylphenyl)-propiohydroxamic acid], in series [1], the “analgetic, antipyretic and antiinflammatory action (in words)” value was “same analgetic, antipyretic and antiinflammatory action of both substances”; the “bioavailability in comparison with ibuprofen (in words)” value is “better bioavailability of ibuproxam in comparison with ibuprofen”; the “toxicity for the mucous membrane of the alimentary tract (in words)” value is “less toxic for the mucous membrane of the alimentary tract”. For the same compound, the “LD50 comparison at parenteral application” value in [2] is listed as “the same for both substances”. The “metabolic conversion into ibuprofen (in words)” value in series [3] is “rapid and almost complete metabolic conversion into ibuprofen”.
Turning to `CC(C)Cc1ccc([C@H](C)C(=O)NO)cc1` [S-(+)-ibuproxam, S-(+)-2-(4-isobutylphenyl)-propiohydroxamic acid], in series [4] (dose 30 mg/kg peroral, rate of bleeding and frequency of ulcers after 4 hours), the “irritation of gastric mucous membrane” value is recorded as 0. The “irritating effect on gastric mucous membrane (in words)” value in [4] (rat, in vivo) was “did not exhibit an irritating effect on gastric mucous membrane”. Further, in series [5], the ED50 was found to be 73 mg/kg. Also, the antiinflammatory action in series [6] (100 mg/kg peroral, 1 hour before carrageenin, oedema inhibition 3 hours after carrageenin) was 37. For the same compound, the “comparative antiinflammatory action (in words)” value in series [6] (rat, in vivo) is reported as “greater antiinflammatory action than free racemic ibuproxam”. The “animals died (in words)” value in [7] (female mice, 1000 mg/kg or 2000 mg/kg peroral, 15 days) is “no animal died”; in series [7] (male mice, 2000 mg/kg peroral), “no animal died”. Also, in series [7] (mice of both sexes, 2000 mg/kg peroral), the “animals died in 15 days (in words)” value was “no animal died in 15 days”. Also, the “comparative toxicity (in words)” value in series [7] was “less toxic than S-(+)-ibuprofen”. Also, the mortality at 360 h was 0% in [8] (setting [10]); 0% in series [8] (setting [11]); 50% in [8] (rat, 1000 mg/kg); 50% in series [8] (rat, 2000 mg/kg). Besides, the mortality at 24 h in [8] (setting [12]) amounted to 0%; in series [8] (setting [13]), 0%; in [8] (rat, 1000 mg/kg), 0%.
As for `CC(C)Cc1ccc(C(C)C(=O)O)cc1` (centres unmarked) [ibuprofen, 2-(4-isobutylphenyl)-propionic acid], the “analgetic, antipyretic and antiinflammatory action (in words)” value in series [1] was “same analgetic, antipyretic and antiinflammatory action of both substances”. Moreover, in series [2], the “LD50 comparison at parenteral application” value is “the same for both substances”.
Take `CC(C)Cc1ccc([C@H](C)C(=O)O)cc1` [S-(+)-ibuprofen]: the “irritation of gastric mucous membrane” value in [4] (rat, in vivo, 30 mg/kg) is listed as 12. The “pharmacological activity (in words)” value in [9] (in vivo) is reported as “pharmacologically active”. Besides, the “comparative toxicity (in words)” value in series [7] is on record as “acute toxicity of S-(+)-ibuprofen in all test animals is greater than acute toxicity of S-(+)-ibuproxam”. Also, the mortality at 360 h in series [8] (mouse, in vivo, 1000 mg/kg, % of deaths after 15 days, female mice, 1000 mg/kg peroral) is 10%; in series [8] (setting [10]), 10%; in series [8] (setting [11]) it was 30%; in series [8] (rat, 1000 mg/kg) it was 83.3%. Also, the mortality at 24 h in series [8] (mouse, in vivo, 1000 mg/kg, % of deaths in 24 h, female mice, 1000 mg/kg peroral) was determined as 10%; in [8] (setting [12]) it was 10%; in series [8] (setting [13]), 0%; in series [8] (rat, 1000 mg/kg), 0%. In [8] (mouse, in vivo, 2000 mg/kg, animals died in 48 hours, male mice, 2000 mg/kg peroral), the mortality at 48 h was 30%. Besides, the LD50 in [8] (rat) was below 1000 mg/kg. Also, in series [8] (rat, 1000 mg/kg), the mortality at 144 h is 83.3%.
As for `CC(C)Cc1ccc([C@@H](C)C(=O)O)cc1` [R-(-)-enantiomer], the “conversion to S-(+)-enantiomer in humans” value in [9] (humans) was “only one third thereof, is converted to S-(+)-enantiomer”.

What is called ED50 is the dose at which the effect has come halfway, by size or by number of responders. As a reminder, the mortality is the share of the test organisms that died. As a reminder, the LD50 is the dose expected to kill half of the subjects tested. A low value points to greater toxicity.
